Values after ≈ are worked out from the molar mass of the structure shown. Values joined by “and” are separate entries in the source; they are usually repeats but may differ in a detail not shown here. Equal values may be shown once. Where a name gives a salt, the structure may show the parent alone. Read-outs that look alike come from different tables or passages of the source.
Legend:
Assay in all cases: Antibacterial activity, minimum inhibition concentration (method of The Chemotherapy Association, Japan)
Type in all cases: cell-based
[1] = tested on: Proteus rettgeri NIH-96; conditions: for MIC: Providencia rettgeri, NIH96, strain I: Proteus rettgeri NIH-96, read-out: minimum inhibition concentration; for minimum inhibition concentration: strain I: Proteus rettgeri NIH-96
Description: (§1) The abbreviations A to P will be used in the following Tables 2 to 8.
(§2) Test results are shown in terms of the minimum inhibition concentration (µg/mℓ.) in the following Tables 2 to 8.

[2] = tested on: Proteus vulgaris OX-19; conditions: for MIC: Proteus vulgaris, OX19, strain H: Proteus vulgaris OX-19, read-out: minimum inhibition concentration; for minimum inhibition concentration: strain H: Proteus vulgaris OX-19
Description: as §1, §2

[3] = tested on: Bacillus subtilis ATCC 6633; conditions: for MIC: Bacillus subtilis, ATCC6633, strain B: Bacillus subtilis ATCC 6633, read-out: minimum inhibition concentration; for minimum inhibition concentration: strain B: Bacillus subtilis ATCC 6633
Method: (§3) Antibacterial activities of the compounds according to this invention, which had been prepared in the preceding Examples, were measured according to the method prescribed by The Committee of Amendment of "The method for measurement of the minimum inhibition concentration", The Chemotherapy Association, Japan (See Chemotherapy, Vol. 22, No. 6, pp. 1126 - 1128 (1974) and Vol. 29, No. 1, pp. 76 - 79 (1981)).
as §1, §2

[4] = tested on: Citrobactor freundii NIH-10018 -68; conditions: strain O: Citrobactor freundii NIH-10018 -68; for MIC: read-out: minimum inhibition concentration
Method: as §3, §1, §2

[5] = tested on: Enterobactor cloacae NCTC-9394; conditions: strain N: Enterobactor cloacae NCTC-9394; for MIC: read-out: minimum inhibition concentration
Method: as §3, §1, §2

[6] = tested on: Escherichia coli NIHJC-2; conditions: for MIC: Escherichia coli; for minimum inhibition concentration: strain L: Escherichia coli NIHJC-2
Method: as §3, §1, §2

[7] = tested on: Escherichia coli NIHJ; conditions: for MIC: Escherichia coli, read-out: minimum inhibition concentration
Method: as §3, §1, §2

[8] = tested on: Klebsiella pneumoniae; conditions: strain C: Klebsiella pneumoniae; for MIC: Klebsiella pneumoniae, read-out: minimum inhibition concentration
Method: as §3, §1, §2

[9] = tested on: Proteus mirabillis B-30-2 IFO-3849
Method: as §3, §1, §2

[10] = tested on: Proteus morgani Kono; conditions: for MIC: read-out: minimum inhibition concentration
Method: as §3, §1, §2

[11] = tested on: Pseudomonas aeruginosa NCTC-10490; conditions: for MIC: Pseudomonas aeruginosa; for minimum inhibition concentration: strain M: Pseudomonas aeruginosa NCTC-10490
Method: as §3, §1, §2

[12] = tested on: Salmonella typhimurium 3173; conditions: for MIC: Salmonella enterica, TYPHIMURIUM
Method: as §3, §1, §2

[13] = tested on: Serratia marcescens IFO-3736; conditions: for MIC: Serratia marcescens; for minimum inhibition concentration: strain F: Serratia marcescens IFO-3736
Method: as §3, §1, §2

[14] = tested on: Staphylococcus aureus 6538-P; conditions: strain A: Staphylococcus aureus 6538-P; for MIC: read-out: minimum inhibition concentration
Method: as §3, §1, §2

[15] = tested on: Serratia marcescens 1023; conditions: for MIC: Serratia marcescens, 1023, strain E: Serratia marcescens 1023, read-out: minimum inhibition concentration
Method: as §3, §1, §2

[16] = NIHJC2, strain L: Escherichia coli NIHJC-2, read-out: minimum inhibition concentration
[17] = strain K: Escherichia coli NIHJ
[18] = strain G: Proteus mirabillis B-30-2 IFO-3849, read-out: minimum inhibition concentration
[19] = NCTC10490, strain M: Pseudomonas aeruginosa NCTC-10490, read-out: minimum inhibition concentration
[20] = strain D: Salmonella typhimurium 3173, read-out: minimum inhibition concentration
[21] = IFO3736, strain F: Serratia marcescens IFO-3736, read-out: minimum inhibition concentration
[22] = strain G: Proteus mirabillis B-30-2 IFO-3849
[23] = strain D: Salmonella typhimurium 3173

Compound	MIC [1]	MIC [2]	MIC [3]	MIC [4]	MIC [5]	MIC [6, 16]	MIC [7, 17]	MIC [8]	MIC [9, 18]	MIC ([10]; strain J: Proteus morgani Kono)	MIC [11, 19]	MIC [12, 20]	MIC [13, 21]	MIC [14]	further results
CC1=C(C(=O)O)N2C(=O)C(NC(=O)C(=C(Cl)Cl)c3csc(N)n3)C2SC1 (stereo not drawn) [8-(3), 7-[2-dichloromethylene-2-(2-aminothiazol-4-yl)-acetamido]-desacetoxycephalosporanic acid sodium salt]	0.2 µg/mL	12.5 µg/mL	100 µg/mL	> 100 µg/mL	100 µg/mL	100 µg/mL	6.25 µg/mL	> 100 µg/mL	100 µg/mL	> 100 µg/mL	> 100 µg/mL	> 100 µg/mL	> 100 µg/mL	25 µg/mL	
CC(=O)OCC1=C(C(=O)O)N2C(=O)C(NC(=O)C(=C(Cl)Cl)c3ccc(Cl)c(Cl)c3)[C@H]2SC1 (stereo partly drawn) [Compound 30, 7-[2-dichloromethylene-2-(3,4-dichlorophenyl)acetamido]-3-acetoxymethyl-3-cephem-4-carboxylic acid]	6.25 µg/mL (≈ 11.6 µM)	> 100 µg/mL	0.78 µg/mL (≈ 1.44 µM)	> 100 µg/mL	> 100 µg/mL	> 100 µg/mL	100 µg/mL (≈ 185 µM)	> 100 µg/mL	> 100 µg/mL	> 100 µg/mL	100 µg/mL (≈ 185 µM)	> 100 µg/mL	> 100 µg/mL	100 µg/mL (≈ 185 µM)	MIC [15]: 6.25 µg/mL (≈ 11.6 µM)
Cn1nnnc1SCC1=C(C(=O)O)N2C(=O)C(NC(=O)C(=C(Cl)Cl)c3ccco3)C2SC1 (stereo not drawn) [Compound 1, 7-[2-dichloromethylene-2-(2-furyl)acetamido]-3-(1-methyl-IH-tetrazol-5-yl)thiomethyl-3-cephem-4-carboxylic acid]	< 0.025 µg/mL	0.2 µg/mL (≈ 0.387 µM)	1.56 µg/mL (≈ 3.02 µM)	12.5 µg/mL (≈ 24.2 µM)	6.25 µg/mL (≈ 12.1 µM)	25 µg/mL (≈ 48.3 µM)	< 0.025 µg/mL	25 µg/mL (≈ 48.3 µM)	50 µg/mL (≈ 96.6 µM)	50 µg/mL (≈ 96.6 µM)	3.12 µg/mL (≈ 6.04 µM)	12.5 µg/mL (≈ 24.2 µM)	50 µg/mL (≈ 96.6 µM)	0.39 µg/mL (≈ 0.754 µM)	MIC [15]: 1.56 µg/mL (≈ 3.02 µM)
CC(=O)OCC1=C(C(=O)O)N2C(=O)C(NC(=O)C(=C(Cl)Cl)c3cccn3C)[C@H]2SC1 (stereo partly drawn) [Compound 36, 7-[2-dichloromethylene-2-(1-methyl-2-pyrrolyl)acetamido]-3-acetoxymethyl-3-cephem-4-carboxylic acid]	1.56 µg/mL (≈ 3.29 µM)	50 µg/mL (≈ 105 µM)	12.5 µg/mL (≈ 26.4 µM)	> 100 µg/mL	> 100 µg/mL	> 100 µg/mL	50 µg/mL (≈ 105 µM)	> 100 µg/mL	> 100 µg/mL	> 100 µg/mL	> 100 µg/mL	> 100 µg/mL	> 100 µg/mL	0.78 µg/mL (≈ 1.64 µM)	MIC [15]: 100 µg/mL (≈ 211 µM)
CC(=O)OCC1=C(C(=O)O)N2C(=O)C(NC(=O)C(=C(Cl)Cl)c3ccccc3)[C@H]2SC1 (stereo partly drawn) [Compound 38, 7-(2-dichloromethylene-2-phenylacetamido)-3-acetoxymethyl-3-cephem-4-carboxylic acid]							3.1 µg/mL (≈ 6.58 µM)				> 100 µg/mL			1.56 µg/mL (≈ 3.31 µM)	
7-[2-dichloromethylene-2-(2-aminothiazol-4-yl)acetamido]-3-(l-carboxymethyltetrazol-5-yl)thiomethyl-3-cephem-4-carboxylic acid disodium salt [7-(3)]															minimum inhibition concentration [1]: <0.025 µg/mL; minimum inhibition concentration [2]: 0.1 µg/mL; minimum inhibition concentration [3]: 12.5 µg/mL; minimum inhibition concentration [4]: 12.5 µg/mL; minimum inhibition concentration [5]: 3.125 µg/mL; minimum inhibition concentration [6]: 25 µg/mL; minimum inhibition concentration [7, 17]: <0.025 µg/mL; minimum inhibition concentration [8]: 12.5 µg/mL; minimum inhibition concentration [9, 22]: 1.56 µg/mL; minimum inhibition concentration ([10]; strain J: Proteus morgani Kono): 3.125 µg/mL; minimum inhibition concentration [11]: 6.25 µg/mL; minimum inhibition concentration [12, 23]: 6.25 µg/mL; minimum inhibition concentration [13]: 25 µg/mL; minimum inhibition concentration [14]: 6.25 µg/mL
CC(=O)OCC1=C(C(=O)O)N2C(=O)[C@@H](NC(=O)Cc3cccs3)[C@H]2SC1 [Cephalo-thin, reference compound]					50 µg/mL (≈ 126 µM)	25 µg/mL (≈ 63.1 µM)									minimum inhibition concentration [5]: >100 µg/mL; MIC ([6]; NIHJC2, read-out: minimum inhibition concentration): 12.5 µg/mL (≈ 31.5 µM); minimum inhibition concentration [6]: 50 µg/mL (≈ 126 µM); MIC [7]: 12.5 µg/mL (≈ 31.5 µM); MIC ([9]; read-out: minimum inhibition concentration, strain G: Proteus mirabillis B-30-2 IFO-3849): 12.5 µg/mL (≈ 31.5 µM); minimum inhibition concentration [9, 22]: 25 µg/mL and 12.5 µg/mL; MIC [10]: > 100 µg/mL; MIC ([11]; NCTC10490, read-out: minimum inhibition concentration): > 100 µg/mL; MIC ([12]; read-out: minimum inhibition concentration, strain D: Salmonella typhimurium 3173): 3.17 µg/mL (≈ 8.01 µM); minimum inhibition concentration [12, 23]: 6.25 µg/mL (≈ 15.8 µM); MIC ([13]; IFO3736, read-out: minimum inhibition concentration): > 100 µg/mL
Cn1nnnc1SCC1=C(C(=O)O)N2C(=O)C(NC(=O)C(=C(Cl)Cl)c3csc(N)n3)C2SC1 (stereo not drawn) [6-(3), 7-[2-dichloromethylene-(2-aminothiazol-4-yl)-acetamido]-3-(l-methyl-lH-tetrazol-5-yl)thiomethyl-3-cephem-4-carboxylic acid sodium salt]															minimum inhibition concentration [1]: <0.025 µg/mL; minimum inhibition concentration [2]: 0.1 µg/mL; minimum inhibition concentration ([3]; sodium salt): 25 µg/mL; minimum inhibition concentration ([7]; strain K: Escherichia coli NIHJ, sodium salt): 0.05 µg/mL; minimum inhibition concentration ([8]; sodium salt): 6.25 µg/mL; minimum inhibition concentration ([12]; strain D: Salmonella typhimurium 3173, sodium salt): 3.125 µg/mL; minimum inhibition concentration [14]: 0.78 µg/mL
CSc1nnc(SCC2=C(C(=O)O)N3C(=O)C(NC(=O)C(=C(Cl)Cl)c4csc(N)n4)C3SC2)s1 (stereo not drawn) [9-(2), 7-[2-dichloromethylene-2-(aminothiazol-4-yl)-acetamido]-3-(2-methylthio-l,3,4-thiadiazol-5-yl) thiomethyl-3-cephem-4-carboxylic acid sodium salt]	< 0.025 µg/mL	0.2 µg/mL	3.12 µg/mL	12.5 µg/mL	3.12 µg/mL	25 µg/mL	< 0.025 µg/mL	12.5 µg/mL	25 µg/mL	12.5 µg/mL	12.5 µg/mL	12.5 µg/mL	50 µg/mL	0.78 µg/mL	
7-[2-chloromethylene-2-(2-aminothiazol-4-yl)acetamido]-3-[(2,5-dihydro-6-hydroxy-2-methyl-5-oxo-as-triazin-3-yl)thiomethyl-3-cephem-4-carboxylic acid disodium salt [Compound 22]															minimum inhibition concentration [2]: 0.1 µg/mL; minimum inhibition concentration [3]: 6.25 µg/mL; minimum inhibition concentration [4]: 1.56 µg/mL; minimum inhibition concentration [5]: 0.39 µg/mL; minimum inhibition concentration [6]: 3.125 µg/mL; minimum inhibition concentration [7, 17]: <0.00625 µg/mL; minimum inhibition concentration [8]: 0.78 µg/mL; minimum inhibition concentration [9, 22]: 0.39 µg/mL; minimum inhibition concentration ([10]; strain J: Proteus morgani Kono): 0.39 µg/mL; minimum inhibition concentration [11]: 6.25 µg/mL; minimum inhibition concentration [12, 23]: 1.56 µg/mL; minimum inhibition concentration ([15]; strain E: Serratia marcescens 1023): 6.25 µg/mL; minimum inhibition concentration [13]: 1.56 µg/mL; minimum inhibition concentration [14]: 0.78 µg/mL
CN(C)CCn1nnnc1SCC1=C(C(=O)O)N2C(=O)C(NC(=O)C(=C(Cl)Cl)c3csc(N)n3)C2SC1 (stereo not drawn) [10-(1), 7-[2-dichloromethylene-2-(2-aminothiazol-4-yl)-acetamido]-3-[l-(2-dimethylaminoethyl)-lH-tetrazol-5-yl]thiomethyl-3-cephem-4-carboxylic acid]	0.05 µg/mL (≈ 0.0824 µM)	0.78 µg/mL (≈ 1.29 µM)	12.5 µg/mL (≈ 20.6 µM)	12.5 µg/mL (≈ 20.6 µM)	3.12 µg/mL (≈ 5.15 µM)	12.5 µg/mL (≈ 20.6 µM)	0.1 µg/mL (≈ 0.165 µM)	12.5 µg/mL (≈ 20.6 µM)	25 µg/mL (≈ 41.2 µM)	12.5 µg/mL (≈ 20.6 µM)	25 µg/mL (≈ 41.2 µM)	12.5 µg/mL (≈ 20.6 µM)	50 µg/mL (≈ 82.4 µM)	3.12 µg/mL (≈ 5.15 µM)	
